Assay results from US9440981B2, “Pyrrolo[2, 1-F] [1,2,4]triazine derivative and use thereof for treating tumors” (PHARMABLOCK (NANJING) R&D CO. LTD., priority 2012, dated 2016).

What was measured:
Assay type in all cases: cell-based
[1] = system: human prostatic cancer cell line PC-3; assay: MTT assay, growth inhibition of PC-3 cells; details: 96-hr culture, read-out: IC50 ± SD, PC-3
Protocol: (§1) The inhibition of the compounds of the present invention on growth of a variety of human tumor cell lines is evaluated by MTT assay.
(§2) Method: cells in exponential phase (human gastric cancer cell line SGC-7901, human non-small cell lung cancer cell line A549, human breast cancer cell line BT-549, human prostatic cancer cell line PC-3, human colon cancer cell line HT-29, and human liver cancer cell line SMMC-7721) are seeded at a density of 1.5×10^4 in a 96-well plate. After 24-hr culture, the cells are grown to confluent and the previous culture medium is aspirated. The test includes a control group, and a treatment group. In the control group, a 1640 medium containing 10% fetal bovine serum is replenished; and in the treatment group, a medium containing 100 μM, 50 μM, 10 μM, 1 μM, 0.1 μM, 0.01 μM, 0.001 μM, 0.0001 μM, and 0.00001 μM test compound is replenished. After 96-hr culture, 5 mg/mL MTT is added, and cultured in a CO2 incubator for another 4 hrs. Then, 100 μL of the supernatant is aspirated from the upper portion of the culture medium, and placed in the dark for 10 min after 100 μL DMSO is added. The absorbance (at 570 nm) is measured on a microplate reader (available from Sunrise Co., Ltd.), and the cell viability is calculated from the absorbance. 6 replicate wells are set for each treatment. Cell viability (%)=ΔODtreatment/ΔODcontrol×100.
(§3) The ID50 values of six compounds for inhibiting the growth of numerous human tumor cell lines are calculated by Sigmaplot 10.0 software and are shown in Table 1.

[2] = system: human non-small cell lung cancer cell line A549; assay: MTT assay, growth inhibition of A549 cells; details: 96-hr culture, read-out: IC50 ± SD, A549
Protocol: as §1, §2, §3

[3] = system: human colon cancer cell line HT-29; assay: MTT assay, growth inhibition of HT-29 cells; details: 96-hr culture, read-out: IC50 ± SD, HT-29
Protocol: as §1, §2, §3

[4] = system: human breast cancer cell line BT-549; assay: MTT assay, growth inhibition of BT-549 cells; details: 96-hr culture, read-out: IC50 ± SD, BT-549
Protocol: as §1, §2, §3

[5] = system: human gastric cancer cell line SGC-7901; assay: MTT assay, growth inhibition of SGC-7901 cells; details: 96-hr culture, read-out: IC50 ± SD, SGC-7901
Protocol: as §1, §2, §3

[6] = system: human liver cancer cell line SMMC-7721; assay: MTT assay, growth inhibition of SMMC-7721 cells; details: 96-hr culture, read-out: IC50 ± SD, SMMC-7721
Protocol: as §1, §2, §3

SMILES	IC50 [1] [nM]	IC50 [2] [nM]	IC50 [3] [nM]	IC50 [4] [nM]	IC50 [5] [nM]	IC50 [6] [nM]
CC(C)(O)c1cc2c(N3CCOCC3)nc(-c3cccc4[nH]ncc34)nn2c1 [Compound I-6]	1050 ± 640	1350 ± 280	2150 ± 190	2600 ± 670	1010 ± 20	1840 ± 320
CS(=O)(=O)N1CCN(Cc2cc3c(N4CCOCC4)nc(-c4cccc5[nH]ccc45)nn3c2)CC1 [Compound I-1]	510 ± 60	2610 ± 340	990 ± 40	1270 ± 80	2150 ± 140	1690 ± 180
C[C@@H](O)C(=O)N1CCN(Cc2cc3c(N4CCOCC4)nc(-c4cnc(N)nc4)nn3c2)CC1 [Compound I-11]	250 ± 120	1500 ± 200	850 ± 180	290 ± 130	1490 ± 150	2050 ± 280
CC(=O)N1CCN(Cc2cc3c(N4CCOCC4)nc(-c4cnc(N)nc4)nn3c2)CC1 [Compound I-8]	140 ± 90	1030 ± 140	290 ± 50	110 ± 20	1420 ± 230	1280 ± 230
CS(=O)(=O)N1CCN(Cc2cc3c(N4CCOCC4)nc(-c4ccnc5[nH]ccc45)nn3c2)CC1 [Compound I-3]	780 ± 360	2730 ± 520	960 ± 310	1990 ± 70	2520 ± 60	1720 ± 70
CCS(=O)(=O)N1CCN(Cc2cc3c(N4CCOCC4)nc(-c4cnc(N)nc4)nn3c2)CC1 [Compound I-7]	290 ± 130	1930 ± 230	470 ± 90	340 ± 40	2390 ± 480	1630 ± 390
C[C@H](O)C(=O)N1CCN(Cc2cc3c(N4CCOCC4)nc(-c4cnc(N)nc4)nn3c2)CC1 [Compound I-10]	200 ± 110	1480 ± 190	310 ± 80	130 ± 30	1290 ± 140	1050 ± 240
CS(=O)(=O)N1CCN(Cc2cc3c(N4CCOCC4)nc(-c4cnc(N)nc4)nn3c2)CC1 [Compound I-4]	1170 ± 140	620 ± 60	1210 ± 40	610 ± 70	830 ± 30	630 ± 110
Nc1ncc(-c2nc(N3CCOCC3)c3cc(CN4CCN(C(=O)C5CC5)CC4)cn3n2)cn1 [Compound I-9]	930 ± 180	3210 ± 380	870 ± 160	410 ± 110	2510 ± 350	3140 ± 380
CS(=O)(=O)N1CCN(Cc2cc3c(N4CCOCC4)nc(-c4cccc5[nH]ncc45)nn3c2)CC1 [Compound I-2]	440 ± 80	2950 ± 450	160 ± 30	350 ± 150	1350 ± 280	2530 ± 1490
CS(=O)(=O)N1CCN(Cc2cc3nc(-c4cccc5[nH]ncc45)nc(N4CCOCC4)c3s2)CC1 [GDC-0941, reference compound]	220 ± 20	1980 ± 340	780 ± 20	590 ± 220	9370 ± 1430	2450 ± 190
CS(=O)(=O)N1CCN(C(=O)c2cc3c(N4CCOCC4)nc(-c4cccc5[nH]ncc45)nn3c2)CC1 [Compound I-5]	220 ± 10	1960 ± 330	730 ± 20	590 ± 220	3350 ± 460	2150 ± 190
